From PubChem BioAssay (NCI)
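Cultured in 96-well plates, cells were exposed to test compound for 48 hours across five concentrations. TGI: total growth inhibition.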

Tests used:
Experiment in all cases: NCI anticancer screen, dose series, 48 h
LOX IMVI melanoma = tested on: LOX IMVI melanoma
SK-MEL-2 melanoma = tested on: SK-MEL-2 melanoma
NCI-H23 lung = tested on: NCI-H23 lung
EKVX NSCLC = tested on: EKVX NSCLC
RXF 393 renal = tested on: RXF 393 renal
KM12 colon = tested on: KM12 colon
OVCAR-4 ovarian = tested on: OVCAR-4 ovarian
HOP-62 NSCLC = tested on: HOP-62 NSCLC
A549 NSCLC = tested on: A549 NSCLC
T-47D breast = tested on: T-47D breast
A498 renal = tested on: A498 renal
HT29 colon = tested on: HT29 colon
SW-620 colon = tested on: SW-620 colon
NCI-H522 lung = tested on: NCI-H522 lung
SF-539 CNS = tested on: SF-539 CNS
786-0 renal = tested on: 786-0 renal
HCT-116 colon = tested on: HCT-116 colon
U251 CNS = tested on: U251 CNS
TK-10 renal = tested on: TK-10 renal
CAKI-1 renal = tested on: CAKI-1 renal
NCI-H460 lung = tested on: NCI-H460 lung
SF-268 CNS = tested on: SF-268 CNS
CCRF-CEM leukemia = tested on: CCRF-CEM leukemia
SK-OV-3 ovarian = tested on: SK-OV-3 ovarian
HCC-2998 colon = tested on: HCC-2998 colon
MDA-N = tested on: MDA-N
MDA-MB-231 breast = tested on: MDA-MB-231 breast
SN12C renal = tested on: SN12C renal
NCI-H226 lung = tested on: NCI-H226 lung
SNB-75 CNS = tested on: SNB-75 CNS
HS 578T breast = tested on: HS 578T breast
HCT-15 colon = tested on: HCT-15 colon
MOLT-4 leukemia = tested on: MOLT-4 leukemia
SK-MEL-5 melanoma = tested on: SK-MEL-5 melanoma
UACC-257 melanoma = tested on: UACC-257 melanoma
SF-295 CNS = tested on: SF-295 CNS
RPMI-8226 leukemia = tested on: RPMI-8226 leukemia
HOP-92 NSCLC = tested on: HOP-92 NSCLC
OVCAR-5 ovarian = tested on: OVCAR-5 ovarian
UACC-62 melanoma = tested on: UACC-62 melanoma
SR leukemia = tested on: SR leukemia
COLO 205 colon = tested on: COLO 205 colon
MALME-3M melanoma = tested on: MALME-3M melanoma
SNB-19 CNS = tested on: SNB-19 CNS
IGROV1 ovarian = tested on: IGROV1 ovarian
UO-31 renal = tested on: UO-31 renal
DU-145 prostate = tested on: DU-145 prostate
K-562 leukemia = tested on: K-562 leukemia
SK-MEL-28 melanoma = tested on: SK-MEL-28 melanoma
ACHN renal = tested on: ACHN renal
OVCAR-8 ovarian = tested on: OVCAR-8 ovarian
NCI/ADR-RES ovarian = tested on: NCI/ADR-RES ovarian
MDA-MB-435 = tested on: MDA-MB-435
PC-3 prostate = tested on: PC-3 prostate

N=C1N(/N=C/c2ccccn2)C(=Nc2ccccc2)C(=S)N1c1ccccc1
TGI (LOX IMVI melanoma): 11.3 µM
TGI (SK-MEL-2 melanoma): 12.8 µM
TGI (NCI-H23 lung): 19.5 µM
TGI (EKVX NSCLC): 15.9 µM
TGI (RXF 393 renal): 16.4 µM
TGI (KM12 colon): 17.3 µM
TGI (OVCAR-4 ovarian): 23.9 µM
TGI (HOP-62 NSCLC): 22 µM
TGI (A549 NSCLC): 23.8 µM
TGI (T-47D breast): 21.1 µM
TGI (A498 renal): 39.5 µM
TGI (HT29 colon): 13.6 µM
TGI (SW-620 colon): 16.3 µM
TGI (NCI-H522 lung): 3.72 µM
TGI (SF-539 CNS): 15.8 µM
TGI (786-0 renal): 13.7 µM
TGI (HCT-116 colon): 8.34 µM
TGI (U251 CNS): 20.7 µM
TGI (TK-10 renal): 22.9 µM
TGI (CAKI-1 renal): 20 µM
TGI (NCI-H460 lung): 15.9 µM
TGI (SF-268 CNS): 18.3 µM
TGI (CCRF-CEM leukemia): > 100 µM
TGI (SK-OV-3 ovarian): 42.8 µM
TGI (HCC-2998 colon): 22 µM
TGI (MDA-N): 11.8 µM
TGI (MDA-MB-231 breast): 19.8 µM
TGI (SN12C renal): 17.9 µM
TGI (NCI-H226 lung): 32.9 µM
TGI (SNB-75 CNS): 42.2 µM
TGI (HS 578T breast): 29.4 µM
TGI (HCT-15 colon): 12.2 µM
TGI (MOLT-4 leukemia): > 100 µM
TGI (SK-MEL-5 melanoma): 16.5 µM
TGI (UACC-257 melanoma): 21.3 µM
TGI (SF-295 CNS): 19 µM
TGI (RPMI-8226 leukemia): > 100 µM
TGI (HOP-92 NSCLC): 22.9 µM
TGI (OVCAR-5 ovarian): 17.5 µM
TGI (UACC-62 melanoma): 4.61 µM
TGI (SR leukemia): > 100 µM
TGI (COLO 205 colon): 5.36 µM
TGI (MALME-3M melanoma): 22.8 µM
TGI (SNB-19 CNS): 31.2 µM
TGI (IGROV1 ovarian): 18.8 µM
TGI (UO-31 renal): 16 µM
TGI (DU-145 prostate): 13.4 µM
TGI (K-562 leukemia): > 100 µM
TGI (SK-MEL-28 melanoma): 23 µM
TGI (ACHN renal): 7.96 µM
TGI (OVCAR-8 ovarian): 13.8 µM
TGI (NCI/ADR-RES ovarian): 10.6 µM
TGI (MDA-MB-435): 17.4 µM
TGI (PC-3 prostate): 15.8 µM
